Literature values as cited in US6093730A, “Substituted isoquinoline-3-carboxamides, their preparation and their use as pharmaceuticals” (Hoechst Marion Roussel Deutschland GmbH, priority 1997, dated 2000).

What was measured:
collagen biosynthesis = conditions: Franklin et al.; cited from earlier work
liver = conditions: rats; Franklin 1997; cited from earlier work

O=C(O)CNC(=O)c1ncc2cc(Br)ccc2c1O [N-((7-bromo-4-hydroxy-isoquinolin-3-yl)carbonyl)glycine]
in-vivo activity on collagen biosynthesis (collagen biosynthesis): in-vivo inhibition of collagen biosynthesis | toxic action on the liver (liver): toxic action on the liver (steatosis)
